Laboratory results taken from patent USRE48335E1, “Polymyxin derivatives as antimicrobial compounds” (priority 2014, dated 2020).
Values after ≈ are worked out from the molar mass of the structure shown. Positions of bridges follow the written chain, without caps; N, C: chain ends. Non-standard residues stand in square brackets, D forms with d. Residues, ends and D or L forms follow the SMILES beside them. *: point of attachment. Benzoyl(3,5-Cl2) = O=C(c1cc(Cl)cc(Cl)c1)*; X3 = O=C(c1ccc(Cl)cc1Cl)*; Dab = NCC[C@H](N)C(=O)O; Abu = CC[C@H](N)C(=O)O; Dap = NC[C@H](N)C(=O)O

What was measured:
[1] = test system: A. baumannii ATCC 19606; experiment: In vivo efficacy in mouse blood infection model (neutropenic Swiss mice); conditions: compound, free base 4 mg/kg intravenously 2 h after inoculation, blood at 4 h
Summary of the method: (§1)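 Neutropenic Swiss mice (cyclophosphamide 150 mg/kg day −4, 100 mg/kg day −1, i.p.) infected i.v. with early log-phase bacteria; 4 mg/kg free base i.v. given 2 h post-inoculation. Blood CFU by cardiac puncture 4 h post-dose; Δlog10 CFU/mL treated versus saline controls.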

[2] = test system: P. aeruginosa ATCC 27853; experiment: as above; conditions: compound, free base 4 mg/kg intravenously 2 h after inoculation, blood at 4 h
Summary of the method: as §1

[3] = test system: K. pneumoniae FADDI-KP032; experiment: as above; conditions: compound, free base 4 mg/kg intravenously 2 h after inoculation, blood at 4 h
Summary of the method: as §1

[4] = test system: Enterobacter cloacae; conditions: broth microdilution in CAMHB; for Minimum inhibitory concentration, Ec FADDI-EC001: Enterobacter cloacae FADDI-EC001; for Minimum inhibitory concentration, Ec FADDI-EC003: Enterobacter cloacae FADDI-EC003; for Minimum inhibitory concentration, Ec FADDI-EC006: Enterobacter cloacae FADDI-EC006
Summary of the method: (§2)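 Broth microdilution MICs following CLSI standards in cation-adjusted Mueller-Hinton broth. Lipopeptides tested as TFA salts; polymyxin B sulphate served as control.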

[5] = test system: Acinetobacter baumannii; conditions: for MIC: A. baumannii ATCC 19606; for Minimum inhibitory concentration, Ab A ATCC 17978: Acinetobacter baumannii ATCC 17978; for Minimum inhibitory concentration, Ab A ATCC 17978 / Minimum inhibitory concentration, Ab ATCC 19606 / Minimum inhibitory concentration, Ab FADDI-AB034: broth microdilution in CAMHB; for Minimum inhibitory concentration, Ab ATCC 19606: Acinetobacter baumannii ATCC 19606; for Minimum inhibitory concentration, Ab FADDI-AB034: Acinetobacter baumannii FADDI-AB034
Summary of the method: as §2

[6] = test system: Pseudomonas aeruginosa; conditions: for MIC: P. aeruginosa ATCC 27853; for Minimum inhibitory concentration, Pa ATCC 27853: Pseudomonas aeruginosa ATCC 27853; for Minimum inhibitory concentration, Pa ATCC 27853 / Minimum inhibitory concentration, Pa FADDI-PA022 / Minimum inhibitory concentration, Pa FADDI-PA025: broth microdilution in CAMHB; for Minimum inhibitory concentration, Pa FADDI-PA022: Pseudomonas aeruginosa FADDI-PA022; for Minimum inhibitory concentration, Pa FADDI-PA025: Pseudomonas aeruginosa FADDI-PA025
Summary of the method: as §2

[7] = test system: Klebsiella pneumoniae; conditions: K. pneumoniae FADDI-KP032
Summary of the method: as §2

[8] = Nephrotoxicity in a mouse model (kidney histology score); format: in vivo; conditions: mice, subcutaneous 12 mg base/kg, 6 doses in one day every 2 h; for Max Overall Kidney Histology Score: kidney ~20 h after last dose, product of percentage score and grade score; for Max Kidney Histology Score: semiquantitative score (SQS) 0 to +5
Method: PMB sulphate (Batch 20120204) and colistin sulphate (Batch 20120719) were supplied by Betapharma (Shanghai Co., Ltd, China). […] At ˜20 h after the last dose, mice were euthanised by inhalation of an overdose of isoflurane. […] The formalin-fixed kidneys were then sent to the Australian Phenomics Network-Histopathology and Organ Pathology (The University of Melbourne, Parkville, VIC, Australia) for histological examination. The samples were examined by a pathologist who was blind to the treatment groups. Lesions were rated as follows: mild acute tubular damage with tubular dilation, prominent nuclei and a few pale […] tubular casts (Grade 1); severe acute tubular damage with necrosis of tubular epithelial cells and numerous tubular casts (Grade 2); acute cortical necrosis/infarction of tubules and glomeruli with or without papillary necrosis (Grade 3). […] The overall kidney histology score was calculated as the product of percentage score and grade score. […] These scores were assigned as follows: […] SQS+3=moderate damage (overall score, 30 to <45); […]

Structure (SMILES)	Δ log (Treated-Control at 4 h) [1]	Δ log (Treated-Control at 4 h) [2]	Δ log (Treated-Control at 4 h) [3]	Minimum inhibitory concentration, Ec FADDI-EC001 [4]	Minimum inhibitory concentration, Ec FADDI-EC003 [4]	Minimum inhibitory concentration, Ec FADDI-EC006 [4]	MIC [5]	Minimum inhibitory concentration, Ab A ATCC 17978 [5]	Minimum inhibitory concentration, Ab ATCC 19606 [5]	Minimum inhibitory concentration, Ab FADDI-AB034 [5]	MIC [6]	Minimum inhibitory concentration, Pa ATCC 27853 [6]	Minimum inhibitory concentration, Pa FADDI-PA022 [6]	Minimum inhibitory concentration, Pa FADDI-PA025 [6]	MIC [7]	Max Overall Kidney Histology Score [8]	Max Kidney Histology Score [8]
CC[C@@H]1NC(=O)[C@@H](CC(C)C)NC(=O)[C@H](CCN)NC(=O)[C@@H](NC(=O)[C@H](CN)NC(=O)[C@@H](NC(=O)[C@H](CCN)NC(=O)c2ccc(Cl)cc2Cl)[C@@H](C)O)CCNC(=O)[C@H]([C@@H](C)O)NC(=O)[C@H](CCN)NC(=O)[C@H](CCN)NC1=O [Compound 82] (X3-[Dab]T[Dap][Dab][Dab][dL][Abu][Dab][Dab]T; lactam 4-C)	−1.44 log10 CFU/mL	−3.44 log10 CFU/mL	−3.33 log10 CFU/mL	<0.125 mg/L	<0.125 mg/L	<0.125 mg/L	0.5 mg/L (≈ 0.431 µM)	0.5 mg/L (≈ 0.431 µM)	0.5 mg/L (≈ 0.431 µM)	0.25 mg/L (≈ 0.215 µM)	0.5 mg/L (≈ 0.431 µM)	0.5 mg/L (≈ 0.431 µM)	0.5 mg/L (≈ 0.431 µM)	1 mg/L (≈ 0.862 µM)	<0.125 mg/L	0.0	0 (SQS 0=no significant change (overall score, <1))
CC[C@@H]1NC(=O)[C@@H](CC(C)C)NC(=O)[C@H](CCN)NC(=O)[C@@H](NC(=O)[C@H](CN)NC(=O)[C@@H](NC(=O)[C@H](CCN)NC(=O)c2cc(Cl)cc(Cl)c2)[C@@H](C)O)CCNC(=O)[C@H]([C@@H](C)O)NC(=O)[C@H](CCN)NC(=O)[C@H](CCN)NC1=O [Compound 96] ({Benzoyl(3,5-Cl2)}-[Dab]T[Dap][Dab][Dab][dL][Abu][Dab][Dab]T; lactam 4-C)	−2.42 log10 CFU/mL	−3.45 log10 CFU/mL	−2.75 log10 CFU/mL	1 mg/L (≈ 0.862 µM)	1 mg/L (≈ 0.862 µM)	0.5 mg/L (≈ 0.431 µM)	0.5 mg/L (≈ 0.431 µM)	0.25 mg/L (≈ 0.215 µM)	0.5 mg/L (≈ 0.431 µM)	0.25 mg/L (≈ 0.215 µM)	0.25 mg/L (≈ 0.215 µM)	0.25 mg/L (≈ 0.215 µM)	0.25 mg/L (≈ 0.215 µM)	0.5 mg/L (≈ 0.431 µM)	<0.125 mg/L	2.0	+1 (SQS+1=mild damage (overall score, 1 to <15))
